Data on three compounds can be found in patent US8338424B2, “Guanidine-containing compounds useful as muscarinic receptor antagonists” (Theravance, Inc., priority 2007, dated 2012).

The subject of test [1] is rats (Sprague-Dawley). The experiment in a line: Rat Einthoven assay (bronchoprotection against MCh). It is filed as in vivo. Conditions: for ID50 (potency): 1.5 hrs post-dose. The method, then:
All test compounds are diluted in sterile water and are dosed via the inhalation route (IH). The rats (Sprague-Dawley, male, 250-350 g) are exposed to the aerosol generated from an LC Star Nebulizer Set and driven by a mixture of gases (5% CO2/95% atmospheric air). Each test compound solution is nebulized over a 10 minute time period in a pie shaped dosing chamber capable of holding six rats. At predetermined time points after inhalation of compound, the Einthoven assay is performed.
Thirty minutes prior to the start of pulmonary evaluation, the animals are anesthetized with inactin (thiobutabarbital, 120 mg/kg IP). The jugular vein is catheterized with saline filled polyethylene catheters (PE-50) and used to infuse MCh. The trachea is then dissected and cannulated with a 14G needle and used for rat ventilation during pulmonary evaluation. Once surgery is complete, rats are ventilated using a piston respirator set at a stroke volume of 1 ml/100 g body weight but not exceeding 2.5 ml volume, and at a rate of 90 strokes per minute.
The changes in pressure that occur with each breath are measured. Baseline values are collected for at least 2.5 minutes then rats are challenged non-cumulatively with 2-fold incremental increases of the bronchoconstrictor MCh (5, 10, 20, 40 and 80 μg/ml). The MCh is infused for 2.5 minutes from a syringe pump at a rate of 2 mL/kg/min. The animals are euthanized upon completion of the studies.
Changes in ventilation pressure (cm H20) in treated animals are expressed as % inhibition of MCh response relative to control animals.
Standard muscarinic antagonists were evaluated in the rat Einthoven assay 1.5 hrs post-dose.
Standards tiotropium and ipratropium were also evaluated 24 hr and/or 6 hr post-dose in the rat Einthoven assay. […] The observed loss of activity at this time point (6 hr) is consistent with its relatively short duration of action in the clinic.

Test [2] has as its system rats (Sprague-Dawley). The experiment in a line: Rat antisialagogue assay (pilocarpine-induced salivation). Format: in vivo. The note with it: evaluated at 1, 6, and 24 hr post-dose. As for the experimental part:
Rats (Sprague-Dawley, male, 250-350 g) are dosed, anesthetized and cannulated as described for Assay 3. At predetermined time points and after surgery, animals are placed on their dorsal side at a 20° incline with their head in a downward slope. A pre-weighed gauze pad is inserted in the animal's mouth and the muscarinic agonist pilocarpine (PILO) (3 mg/kg, iv.) is administered. Saliva produced during 10 minutes post-PILO is measured gravimetrically by determining the weight of the gauze pad before and after PILO. Antisialagogue effects are expressed as % inhibition of salivation relative to control animals.
The rat antisialagogue assay was developed to assess systemic exposure and calculate the lung selectivity index (LSI) of test compounds. The standard, tiotropium, was evaluated in this model at 1, 6, and 24 hr post-dose. […] This finding is consistent with the peak effects observed in the Einthoven assay.
This model is a modified version of the procedure described in Rechter, “Estimation of anticholinergic drug effects in mice by antagonism against pilocarpine-induced salivation” Ata Pharmacol Toxicol 24:243-254 (1996). The mean weight of saliva in vehicle-treated animals, at each pre-treatment time, is calculated and used to compute % inhibition of salivation, at the corresponding pre-treatment time, at each dose.

Each structure is given as a SMILES string.

As to `C[N+]1(C)CCC(OC(=O)C(O)(c2ccccc2)C2CCCC2)C1` (centres unmarked) [glycopyrrolate], the “ID50 (potency)” value in the test with rats (Sprague-Dawley) [1] (inhalation) turned out to be 15 µg/mL.
On to `C[N+]1(C)[C@@H]2C[C@@H](OC(=O)C(O)(c3cccs3)c3cccs3)C[C@H]1[C@@H]1O[C@@H]12` [tiotropium], for which, in the test on rats (Sprague-Dawley) [1] (inhalation), the “ID50 (potency)” value turned out to be 6 µg/mL and the “time of peak bronchoprotection post-dose” value was found to be 6 h. In addition, in the test on rats (Sprague-Dawley) [1] (6 hr and 24 hr post-dose), the “6 hr versus 24 hr potency values” is “not significantly different from each other”; the “fold more potent at 6 hr and 24 hr compared to 1.5 hr potency” value was “about 2 fold”. For the same compound, the “time post dose at which most potent at inhibiting pilocarpine-induced salivation” value in the test on rats (Sprague-Dawley) [2] is 6 h.
Turning to `CC(C)[N+]1(C)[C@@H]2CC[C@H]1C[C@@H](OC(=O)C(CO)c1ccccc1)C2` (some centres unmarked) [ipratropium], in the test with rats (Sprague-Dawley) [1] (6-hr post-dose, 10 and 30 μg/ml), the “fold less potent 6-hr post-dose compared to 1.5 hr potency” value was “about 3 fold”. Besides, the “ID50 (potency)” value in the test with rats (Sprague-Dawley) [1] (inhalation) worked out at 4.4 µg/mL.
